# Laboratory results taken from patent US20090221610A1, “Compositions and Methods for Treating Cognitive Disorders” (Yale University, priority 2006, published 2009).
# Entries after “also recorded” stand apart in the source; their conditions may differ.
# How the values were obtained:
# PFC neurons = experiment: Single neuron recording and iontophoresis in monkeys performing a spatial WM (ODR) task; type: in vivo, rhesus monkeys; conditions: for No Reversal: number of neurons / No Reversal: percent of neurons / Reversal: number of neurons / Reversal: percent of neurons: co-iontophoresis; for Increased: percent of neurons, spatial delay-related firing / Un-changed: number of neurons, spatial delay-related firing / Un-changed: percent of neurons, spatial delay-related firing / Decreased: percent of neurons, spatial delay-related firing / Decreased: number of neurons, spatial delay-related firing / Increased: number of neurons, spatial delay-related firing of PFC neurons / Increased: number of neurons, spatial delay-related firing: iontophoresis; for Increased: number of neurons, spatial delay-related firing of PFC neurons: low dose 5-15 nA (text: ZD7288 10 nA); for Reversal of the enhancing effects of guanfacine on delay-related activity: co-iontophoresis with guanfacine (yohimbine 15 nA; Sp-cAMPS 10 nA); for Increased: number of neurons, spatial delay-related firing: no dose in table (text: Sp-cAMPS 10 nA, Rp-cAMPS 40-50 nA)
# Experimental: Studies were performed on 4 adult male rhesus monkeys trained on the spatial ODR task (FIG. 3). Iontophoretic electrodes, neuronal recording and drug delivery were as described in (Wang et al., 2004) and also are provided in the Supplemental Material. Guanfacine, yohimbine, ZD7288(Tocris, Ellisville, Mo.) and etazolate (Sigma, St. Louis, Mo.) were dissolved at 0.01M in triple-distilled water (adjusted with HCl to pH 3.5-4.0). Sp-cAMP and Rp-cAMP (Sigma) were dissolved at 0.01M in triple-distilled water (adjusted with NaOH to pH 9). Two-way ANOVA was used to examine the spatial tuned task-related activity with regard to: (1) different periods of the task (cue, delay, response vs. fixation) and (2) different cue locations. One-way ANOVAs were employed to assess the effect of the drug application on cells displaying delay-related activity. Monkeys performed an oculomotor spatial delayed response (ODR) task, illustrated in FIG. 3A. The ODR task requires the monkey to make a memory-guided […] to a visuo-spatial target. Stimulus position was randomized over trials to ensure use of WM. Neurons were recorded from area 46 of the dorsolateral PFC (FIG. 3B) as the monkey performed the task. […] In the present study, 128 neurons with delay-related mnemonic activity were isolated and subjected to iontophoretic application of pharmacological agents See Table 1, below summarizing the effects of drugs (Table 1) and their reversal (Table 2) on PFC neuronal response.
# ferret PFC slices = experiment: In vitro extracellular multiple unit and intracellular recording from PFC slices; type: cell-based; conditions: bath application 20-50 micromolar
# Experimental: Methods for extracellular multiple unit and intracellular recording in ferret PFC slices have been detailed elsewhere (Shu et al., 2003). Slices (0.4 mm) from 2-4 month old ferret PFC were maintained in either an interface or submerged chamber (35-36° C.) in a slice solution containing (in mM): NaCl, 126; KCl, 3.1; MgSO4, 1; NaHPO4, 1.25; CaCl2, 1; NaHCO3, 26; dextrose, 10, and aerated with 95% O2, 5% CO2 to a final pH of 7.4. Simultaneous extracellular multiple unit and intracellular recordings were performed in layer 5 with the electrodes approximately […] of one another. Intracellular micropipettes contained 2 M potassium acetate, while whole cell recording pipettes contained KGluconate 140, KCl 3, MgCl2 2, Na2ATP 2, HEPES 10, and EGTA 0.2. The cellular and network consequences of modulation of HCN channels was examined with intracellular and whole cell recordings from layer 5 pyramidal cells simultaneously with extracellular multiple unit recordings in the ferret PFC in vitro (n=55, see FIG. 6G). Under normal conditions, these slices generate Up and Down states, consisting of repeating periods of recurrent network activity (Shu et al., 2003).
# rat prefrontal cortex [1] = experiment: Spatial delayed alternation task in a T maze after intra-PFC infusion; type: in vivo
# Experimental: Rats (n=5) were tested on the spatial delayed alternation task in a T maze, a classical test of prefrontal cortical function in rodents (Larsen and Divac, Physiolog Psychol, 6:15-17, 1978). Rats were trained on the task, and then implanted with cannula aimed at the prelimbic prefrontal cortex as described in (Ramos, et al., Neuron, 40:835-845, 2003). Following recovery from surgery, rats were infused with saline (0.5 μl), the Ih channel blocker ZD7288 (0.0001 μg/0.5 μl), the cAMP analog […]), or a combination of ZD7288 (0.0001 μ[…] (0.21 nmol). There was at least one week washout between drug treatments, and a within subjects comparison was performed (2 way analysis of variance with repeated measures with user defined contrasts). […] Male Sprague Dawley rats (240-260 g; Taconic, Germantown, N.Y.) were trained on the delayed alternation task as described in Ramos et al., 2003. Guide cannula were implanted dorsal in prelimbic PFC (AP: +3.2 mm; ML: ±0.75 mm; DV: -4.2 mm). For infusions, needles reached to 4.5 mm DV; infused at 0.25 μL/min for 2 min. Drug or vehicle was administered in a counterbalanced order with at least 1 week between infusions. […] The experimenter was blind to treatment.
# rat prefrontal cortex [2] = experiment: as above; type: in vivo; remark: listed apart in the source
# [3] = iontophoresis 10 nA, example neuron
# [4] = no dose in table (yohimbine 15 nA, Sp-cAMPS 10 nA, etazolate 25 nA)
Compound,Effect on delay-related firing for the preferred direction (PFC neurons; [3]),"Increased: percent of neurons, spatial delay-related firing (PFC neurons; 5-15 nA)","Un-changed: number of neurons, spatial delay-related firing (PFC neurons; 5-15 nA)","Un-changed: percent of neurons, spatial delay-related firing (PFC neurons; 5-15 nA) [%]","Decreased: percent of neurons, spatial delay-related firing (PFC neurons; 20-50 nA)","Decreased: number of neurons, spatial delay-related firing (PFC neurons; high dose 20-50 nA)","Increased: number of neurons, spatial delay-related firing of PFC neurons (PFC neurons)",Reversal of the enhancing effects of guanfacine on delay-related activity (PFC neurons),Reversal: number of neurons (PFC neurons; reversal of guanfacine),Reversal: percent of neurons (PFC neurons; reversal of guanfacine),"Decreased: percent of neurons, spatial delay-related firing (PFC neurons; no dose in table)","Increased: percent of neurons, spatial delay-related firing (PFC neurons; no dose in table)","Un-changed: number of neurons, spatial delay-related firing (PFC neurons; no dose in table)","Un-changed: percent of neurons, spatial delay-related firing (PFC neurons; no dose in table) [%]","Increased: number of neurons, spatial delay-related firing (PFC neurons)","Decreased: number of neurons, spatial delay-related firing (PFC neurons; [4])",other results
CCN(c1ccccc1)c1cc(NC)[n+](C)c(C)n1.[Cl-] [ZD7288],further enhanced,(70%),8,30,(100%),10,19,,,,,,,,,,"Reversal of the reduction in delay-related firing induced by etazolate (PFC neurons; co-iontophoresis with etazolate): fully reversed; Reversal of the yohimbine suppression of delay-related activity (PFC neurons; co-iontophoresis with yohimbine (15 nA)): significantly reversed; No Reversal: number of neurons (PFC neurons; reversal of etazolate): 2; No Reversal: percent of neurons (PFC neurons; reversal of etazolate): 25%; Reversal: number of neurons (PFC neurons; reversal of etazolate): 6; Reversal: percent of neurons (PFC neurons; reversal of etazolate): (75%); No Reversal: number of neurons (PFC neurons; reversal of yohimbine): 2; No Reversal: percent of neurons (PFC neurons; reversal of yohimbine): 31%; Reversal: number of neurons (PFC neurons; reversal of yohimbine): 7; Reversal: percent of neurons (PFC neurons; reversal of yohimbine): (71%); Reversal: number of neurons (PFC neurons; reversal of yohimbine, listed as ZD 7288): 5; Effect on delay-related firing for the preferred direction (PFC neurons; iontophoresis 5 nA, example neuron): significantly increased; Effect on delay-related firing (PFC neurons; iontophoresis 40 nA, highest concentration): decreased rather than increased firing; Number of action potentials generated by a depolarizing current pulse (ferret PFC slices): increase; Up-state action potential discharge (ferret PFC slices; from 1.8±1.7 Hz, n=9): 9.2±4.9 Hz; Apparent input resistance (ferret PFC slices; from 18.6±7.5, n=10): 36±10.8 Mohms; Duration of the recurrent network activity of the Up state (ferret PFC slices; from an average of 0.84 (±0.25) before): 4.1 (±1.3) sec; Increase in duration of the recurrent network activity of the Up state (ferret PFC slices; n=10): ~500%; Membrane potential of layer 5 pyramidal neurons (ferret PFC slices; n=12): progressive hyperpolarization; Spatial working memory performance (percent correct, delayed alternation) compared to saline (rat prefrontal cortex [1]; intra-PFC infusion 0.0001 μg/0.5 μl, n=5): significantly improved"
Nc1ncnc2c1ncn2[C@@H]1O[C@@H]2COP(O)(=S)O[C@H]2[C@H]1O (stereo partly drawn) [Sp-cAMP],significantly decreased,,,,,,,significantly reversed,6,(67%),(48%),(33%),5,19,9,13,"Reversal: number of neurons (PFC neurons; reversal of Rp-cAMP): 6; Reversal: percent of neurons (PFC neurons; reversal of Rp-cAMP): (100%); No Reversal: number of neurons (PFC neurons; reversal of guanfacine): 3; No Reversal: percent of neurons (PFC neurons; reversal of guanfacine): 33%; Increased: number of neurons, spatial delay-related firing (PFC neurons; listed as Sp-cAMPS): 9; Un-changed: number of neurons, spatial delay-related firing (PFC neurons; no dose in table, listed as Sp-cAMPS): 5; Reversal of the enhancing effect of Rp-cAMPS on delay-related firing (PFC neurons; subsequent co-iontophoresis with Rp-cAMPS): reversed; Effect of co-infusion on the ZD7288 improvement of working memory (rat prefrontal cortex [1]; co-infusion 0.21 nmol with ZD7288 0.0001 μg, listed as Sp-cAMPS): significantly reversed; also recorded: blocked; also recorded: significantly reduced; Spatial working memory performance compared to saline (rat prefrontal cortex [1]; intra-PFC infusion 0.21 nmol/0.5 μl alone): no effect on its own; Effect of co-infusion on the guanfacine effects on working memory (rat prefrontal cortex [2]; aged rats, co-infusion with guanfacine): reversed"
CCOC(=O)c1cnc2c(cnn2CC)c1NN=C(C)C [Etazolate],,,,,,,,,,,(83%),,2,17,,10,
Nc1ncnc2c1ncn2[C@@H]1O[C@@H]2COP(O)(=S)O[C@H]2[C@H]1O (stereo partly drawn) [Rp-cAMP],,,,,,,,,,,,(67%),4,33,8,,"Effect on delay-related firing for the preferred direction (PFC neurons; iontophoresis 40-50 nA): specifically increased; Increased: number of neurons, spatial delay-related firing (PFC neurons; listed as Rp-cAMPS): 8"
"NC(N)=NC(=O)Cc1c(Cl)cccc1Cl [Guanfacine, N-(diaminomethylidene)-2-(2,6-dichlorophenyl)acetamide]",substantially increased; also recorded: significantly increased,(80%),7,20,(100%),9,28,,,,,,,,,,"Effect on delay-related firing (PFC neurons; iontophoresis 50 nA, higher dose): did not have enhancing effects; Spatial working memory performance (percent correct, delayed alternation) (rat prefrontal cortex [2]; aged rats (n=9), prefrontal infusion 0.0001 μg): significantly different than saline"
COC(=O)[C@@H]1[C@H]2C[C@H]3c4[nH]c5ccccc5c4CCN3C[C@@H]2CC[C@@H]1O [Yohimbine],,,,,,,,reversed,6,(100%),(100%),,,,,15,Effect on delay-related activity for the preferred direction (PFC neurons; iontophoresis 15 nA): dramatically suppressed
